Experimental data reported in patent US20210337817A1, “COMPOUNDS AND FORMULATIONS FOR PROTECTIVE COATINGS” (Apeel Technology, Inc., priority 2018, published 2021).
“Also recorded” adds a separate entry of the source.

Columns and labels:
[1] = system: avocados; assay: Skin damage of treated avocados (photograph); details: 5 mg/mL in water, no long chain fatty acid esters/salts (FIG. 5)
Source text: Medium chain fatty acids (e.g., having a carbon chain length in a range of 7 to 13) and/or salts or esters thereof can also be used as coating agents to form coatings over produce or other plant matter or agricultural products using the methods described above.
[…] […] Prior to treatment, the avocado skin was virtually entirely green (not shown).

[2] = Contact angle on paraffin wax, direct or primed surface; type: physicochemical; details: paraffin wax primed with CA-1G 3 mg/mL in water and dried, then pure water drops
Description: For bar 1601, the solvent was pure water. […] The mixture corresponding to bar 1603 was the same as that of bar 1602 but also included 3 mg/mL of CA-1G. For bar 1604, a mixture of CA-1G at a concentration of 3 mg/mL in water was first deposited on the surface of the paraffin wax and then allowed to dry in order to prime the surface. Afterward, the contact angle of water on the primed surface was determined. For bar 1605, a mixture of CA-1G at a concentration of 3 mg/mL in water was first deposited on the surface of the paraffin wax and then allowed to dry in order to prime the surface. Afterward, the contact angle of a mixture of SA-1G and SA-Na at a mass ratio of 95:5 dispersed in water at a concentration of 45 mg/mL on the primed surface was determined.

[3] = system: finger limes; assay: Average daily mass loss rate of coated finger limes; details: coating agent 10 mg/mL in ethanol, 23-27° C., humidity 40-55%, untreated 5.3%
Source text: As used herein, the “mass loss rate” refers to the rate at which the product loses mass (e.g. by releasing water and other volatile compounds). The mass loss rate is typically expressed as a percentage of the original mass per unit time (e.g. percent per day).
FIG. 1 is a graph showing average daily mass loss rates for finger limes coated with various mixtures of PA-2G and PA-1G measured over the course of several days. Each bar in the graph represents average daily mass loss rates for a group of 24 finger limes. The finger limes corresponding to bar 102 were untreated. The finger limes corresponding to bar 104 were coated with a coating agent that was substantially pure PA-1G. The finger limes corresponding to bar 106 were coated with a coating agent that was about 75% PA-1G and 25% PA-2G by mass. The finger limes corresponding to bar 108 were coated with a coating agent that was about 50% PA-1G and 50% PA-2G by mass. The finger limes corresponding to bar 110 were coated with a coating agent that was about 25% PA-1G and 75% PA-2G by mass. The finger limes corresponding to bar 112 were coated with a coating agent that was substantially pure PA-2G. The coating agents were each dissolved in ethanol at a concentration of 10 mg/mL to form solutions, and the solutions were applied to the surface of the corresponding finger limes to form the coatings. […]

SMILES | average daily mass loss rate [3] [% per day] | also measured
CCCCCCCCCCC(=O)OCC(O)CO (stereo not shown) [UA-1G, 2,3-dihydroxypropan-1-yl undecanoate] |  | skin damage of avocados after treatment [1]: high density of black discolored regions; also recorded: extensive skin damage
CCCCCCCCCC(=O)OCC(O)CO (stereo not shown) [CA-1G, 2,3-dihydroxypropan-1-yl decanoate] |  | average contact angle of water on primed surface [2]: 24 °
CCCCCCCCCCCCCCCC(=O)OCC(O)CO (stereo not shown) [PA-1G, 2,3-dihydroxypropan-1-yl palmitate] | 4.3 | 
CCCCCCCCCCCCCCCC(=O)OC(CO)CO [PA-2G, 1,3-dihydroxypropan-2-yl palmitate] | 3.7 | 
